The text below walks through data of patent US6662040B1, “Methods of photoacoustic imaging” (Amersham Health AS, priority 1997, dated 2003).

For data set [1] the following is noted: cited from earlier work.
The subject of a further data set is HT-29 tumors. As to the kind of experiment: Comparative biodistribution in mice containing HT-29 tumors. The format is in vivo, female immunodeficient mice. The conditions noted are these: for detection in the tumor: PBS solution. An excerpt:
FIG. 1a is a graph of comparative biodistribution data of contrast agent NC100448 versus indocyanine green as control in female immunodeficient mice containing HT-29 tumors at one hour post intravenous injection of phosphate buffered saline solutions of each.
FIG. 1b is a graph of comparative biodistribution data of contrast agent NC100448 versus indocyanine green as control in female immunodeficient mice containing HT-29 tumors at three hours post intravenous injection of phosphate buffered saline solutions of each. […] Relative to FIG. 1a, the concentration of the contrast agent in the tumor has increased while the concentration in the blood has decreased.
Biodistribution results are presented in FIGS. 1a (one hour post-dosing) and 1b (three hours post-dosing).

The conditions of data set [2]: not told.
Procedure: Monochromatic X-rays with a photon energy of 20 to 30 keV are obtained with a double crystal monochromator using white X-rays from a sychrotron. The beam intensity is modulated by a rotating lead plate chopper with a frequency of 10 Hz. The sample chamber is a cylindrical cell with a volume of about 0.5 ml in a saline bath which has two beryllium windows. The photon flux into the sample chamber is measured with an ionization chamber placed in front.
The amplitude of the photoacoustic signal, normalized to the photon flux, is measured when the sample chamber contains the saline solution and when it contains a barium sulfate suspension.
The amplitude of the photoacoustic signal, normalized to the photon flux, is measured when the sample chamber contains the saline solution and when it contains a solution of iodixanol in PBS.
A short description of data set [3]: Photoacoustic imaging with infrared radiation in mice. The format is in vivo, hairless, immunocompetent mice. Conditions: 100 μl i.v. tail vein of 4.6 mg/ml in PBS, 750 nm alexandrite laser, immediately following injection.
Procedure: The dry contrast agent (4.6 mg) was dissolved immediately before use in 1 ml phosphate buffered saline (Delbecco's buffer). The solution was doubly filtered through a syringe filter with a pore size of 0.45 μm and then was stored in the dark before injection.
The test animals were hairless, immunocompetent mice weighing about 23 g, which were anaesthetized I. m. with 5 μl xylazine (Rompun) and 10 μl ketamine prior to the measurements.
The irradiating light was produced by an alexandrite laser operating at a frequency of 750 nm. The light beam was attenuated with a neutral density filter so that the energy imparted by each pulse to the skin of the mice was less than 50 millijoules.
For imaging, the mouse rested on the lithium niobate acoustic transducer. The photoacoustic signal was detected after it passed to the opposite side of the mouse from incident radiation. The signal was detected after it passed through the body of the mouse to the opposite side from the point of irradiation.
Before injection of the contrast agent, the first mouse was positioned on its back on the transducer so as to maximize the internal signal when the skin above the liver was irradiated. […] The injected dose was 100 μl injected intravenously into the tail vein with a 26 gauge needle. Immediately following injection, the mouse was again positioned for a maximum signal.
The mark [4] stands for this setting: one hour post intravenous injection.
The mark [5] stands for this setting: three hours post intravenous injection.

With `Oc1ccc2ccccc2c1N=Nc1ccc(N=Nc2ccccc2)cc1` [Sudan III], the “solubility in sesame oil” value in data set [1] (sesame oil) is reported as “soluble in sesame oil”. The solubility in water result in data set [1] (water) was “very water insoluble”.

In the case of `CC1(C)C(/C=C/C=C/C=C/C=C2\N(CCCCS(=O)(=O)O)c3ccc4ccccc4c3C2(C)C)=[N+](CCCCS(=O)(=O)[O-])c2ccc3ccccc3c21` [indocyanine green], the “detection in the tumor” value in the data set on HT-29 tumors (setting [4]) and in the data set with HT-29 tumors (setting [5]) was “negligibly detected” in each case.

As to `CC(=O)N(CC(O)CN(C(C)=O)c1c(I)c(C(=O)NCC(O)CO)c(I)c(C(=O)NCC(O)CO)c1I)c1c(I)c(C(=O)NCC(O)CO)c(I)c(C(=O)NCC(O)CO)c1I` (stereo not shown) [iodixanol], in data set [2], the “amplitude of the photoacoustic signal normalized to photon flux, versus saline solution” value is reported as “larger”.

Consider “bis(thioether) 2:1 dye:polymer Reaction Product Between 2-[2-[2-chloro-3-[[1,3-dihydro-1,1,-dimethyl-3-(3-sulfopropyl)-2H-benz [e]indol-2-ylidene]ethylidene]-5-(ethoxycarbonyl)-1-cyclohexen-1-yl]ethenyl]-1,1-dimethyl-3-(3-sulfopropyl)-1H-benz[e]indolium, Inner Salt, Sodium Salt and Disodium PEG3,4000-α,ω-dithiolate [NC100448]”, for which the “detection in the tumor” value in the data set on HT-29 tumors (setting [4]) is “detected in the tumor”. In addition, in the data set on HT-29 tumors (setting [5]), the “concentration in the blood relative to FIG. 1a (one hour)” value is “decreased”, the “concentration in the tumor relative to FIG. 1a (one hour)” value is given as “increased” and the “detection in the tumor” value is given as “detected in the tumor”. Also, in data set [3], the “maximum detected signal from the blood vessels of the liver versus prior to injection” value is 5 to 10 times larger.
